The term IC50 denotes the midpoint of a concentration-inhibition curve.

Assay [1] has as its target T1, Wild Type ALK kinase (Homo sapiens, UniProt Q9UM73).
T1 construct: purchased Sino-US Crown Bioscience, Inc. batch number ALK 20110607
Nature of the assay: HTRF KinEASE-TK assay, inhibitory activity on wild type ALK kinase. The assay is classed as biochemical. To be noted: wild type ALK 1 ng/μl, substrate 1 μM, 30° C. 35 minutes, read-out: Inhibition on ALK kinases (wildtype), IC50. The essentials: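 ALK kinase at 1 ng/μl and substrate at 1 μM were reacted with compound (1% DMSO) in buffer with 5 mM MgCl2 and 1 mM DTT for 35 min at 30 °C. HTRF detection used the 665/615 ratio, normalised to no-compound wells and to 10.4 μM LDK-378 wells. IC50 came from a concentration-response fit.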

Assay [2] relates to NCI-H2228 cell line. Kind of assay: CellTiter-Glo cell proliferation inhibition on NCI-H2228 cell line. The assay is classed as cell-based. The following applies: Homo sapiens, NCI-H2228, 96 h, NCI-H2228 cells, 5000 cells/well, 4 days drug treatment. The essentials: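 NCI-H2228 cells, 5000/well in RPMI-1640 + 10% FBS, treated with compounds 2 h after seeding (0.5% DMSO final) for 4 days at 37° C. Viability by CellTiter-Glo luminescence; inhibition relative to DMSO control, IC50 from curve fit.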
A general note: In ATP-based viability assays light output follows the ATP content of the culture.

T1 sequence (Q9UM73 19-1620): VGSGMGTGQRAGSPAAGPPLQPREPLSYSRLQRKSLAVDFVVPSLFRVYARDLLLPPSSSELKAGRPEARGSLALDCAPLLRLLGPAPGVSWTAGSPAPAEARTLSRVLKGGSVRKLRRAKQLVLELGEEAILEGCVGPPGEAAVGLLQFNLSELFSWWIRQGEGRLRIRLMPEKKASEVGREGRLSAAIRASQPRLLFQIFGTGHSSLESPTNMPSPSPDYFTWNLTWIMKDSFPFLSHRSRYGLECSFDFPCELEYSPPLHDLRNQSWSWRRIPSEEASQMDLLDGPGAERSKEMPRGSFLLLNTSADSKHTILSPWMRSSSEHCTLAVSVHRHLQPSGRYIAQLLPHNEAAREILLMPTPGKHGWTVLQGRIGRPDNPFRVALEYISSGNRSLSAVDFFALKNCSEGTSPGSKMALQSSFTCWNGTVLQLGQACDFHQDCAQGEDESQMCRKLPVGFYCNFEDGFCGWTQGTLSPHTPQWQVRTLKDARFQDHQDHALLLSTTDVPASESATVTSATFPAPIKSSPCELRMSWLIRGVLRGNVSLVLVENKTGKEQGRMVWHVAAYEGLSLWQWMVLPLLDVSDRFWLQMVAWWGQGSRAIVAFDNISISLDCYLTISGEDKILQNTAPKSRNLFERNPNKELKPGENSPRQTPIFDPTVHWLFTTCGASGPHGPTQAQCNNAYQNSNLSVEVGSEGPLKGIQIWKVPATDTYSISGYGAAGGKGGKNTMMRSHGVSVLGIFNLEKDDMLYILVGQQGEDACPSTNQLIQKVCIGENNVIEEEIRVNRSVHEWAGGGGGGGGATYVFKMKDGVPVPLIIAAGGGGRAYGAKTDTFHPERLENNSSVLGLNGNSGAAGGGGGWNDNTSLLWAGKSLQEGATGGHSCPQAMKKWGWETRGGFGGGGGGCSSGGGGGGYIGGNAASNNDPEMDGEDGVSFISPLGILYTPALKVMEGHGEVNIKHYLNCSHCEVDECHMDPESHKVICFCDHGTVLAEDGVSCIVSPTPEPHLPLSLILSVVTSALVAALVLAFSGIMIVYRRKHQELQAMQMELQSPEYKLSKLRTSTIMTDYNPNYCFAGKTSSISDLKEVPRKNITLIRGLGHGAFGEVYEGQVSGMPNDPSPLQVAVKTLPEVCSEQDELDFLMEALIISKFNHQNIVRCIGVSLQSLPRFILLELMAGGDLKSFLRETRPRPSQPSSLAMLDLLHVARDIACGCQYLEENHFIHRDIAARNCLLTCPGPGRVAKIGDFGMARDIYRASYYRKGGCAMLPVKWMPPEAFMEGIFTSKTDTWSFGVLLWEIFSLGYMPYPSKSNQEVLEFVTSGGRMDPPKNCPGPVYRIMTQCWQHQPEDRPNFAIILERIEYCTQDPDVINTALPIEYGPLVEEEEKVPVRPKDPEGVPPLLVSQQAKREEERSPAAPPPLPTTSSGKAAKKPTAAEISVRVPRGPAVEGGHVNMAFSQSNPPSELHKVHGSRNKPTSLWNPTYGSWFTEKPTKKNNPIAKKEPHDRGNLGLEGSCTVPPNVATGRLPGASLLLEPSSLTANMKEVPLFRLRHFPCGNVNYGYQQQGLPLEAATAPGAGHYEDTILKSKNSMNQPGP

In the case of `CC(C)S(=O)(=O)c1nn(C2CC2)cc1Nc1nc(Nc2cc(Cl)c(C3CCNCC3)cc2OC2CC2)ncc1Cl` [Final product 23], the IC50 in assay [1] worked out at 4 nM; in assay [2], 107 nM.
In the same order, the values of `CC(C)S(=O)(=O)c1nn(C)cc1Nc1nc(Nc2ccc(C3CCNC3)cc2OC2CC2)ncc1Cl` (stereo not shown) [Final product 15] are 3 nM and 48 nM.
The matching figures for `Cc1cc(Nc2ncc(Cl)c(Nc3cn(C)nc3S(=O)(=O)C(C)C)n2)c(OC2CCC2)cc1C1CCN(CCO)CC1` [Final product 138]: 4 nM and 60 nM.
The matching figures for `CC(C)S(=O)(=O)c1nn(C)cc1Nc1nc(Nc2ccc(C3CCN(C)CC3)cc2OC(F)(F)F)ncc1Cl` [Final product 30]: 7 nM and 93 nM.
`CC(C)S(=O)(=O)c1nn(C2CC2)cc1Nc1nc(Nc2ccc(C3CCN(C)CC3)cc2OC(F)(F)F)ncc1Cl` [Final product 38]: the IC50 amounted to 11 nM in assay [1] and 146 nM in assay [2].
In the same order, the values of `Cc1cc(Nc2ncc(Cl)c(Nc3cn(C)nc3S(=O)(=O)C(C)C)n2)c(OC2CC2)cc1[C@H]1CC[C@@H](N(C)C)CC1` [Final product 189] are 4 nM and 76 nM.
`Cc1cc(Nc2ncc(Cl)c(Nc3cn(C)nc3S(=O)(=O)C(C)C)n2)c(OC(C)C)cc1C1CNC1` [Final product 4]: the figures for the IC50 in assay [1] and in assay [2] were 4 nM and 288 nM, respectively.
In the same order, the values of `Cc1cc(Nc2ncc(Cl)c(Nc3cn(C)nc3S(=O)(=O)C(C)C)n2)c(OCC2CC2)cc1C1CCNCC1` [Final product 12] are 10 nM and 262 nM.
In the same order, the values of `Cc1cc(Nc2ncc(Cl)c(Nc3cn(C)nc3S(=O)(=O)C(C)C)n2)c(OC2CC2)cc1C1CCOCC1` [Final product 107] are 9 nM and 174 nM.
On to `Cc1cc(Nc2ncc(Cl)c(Nc3cn(C)nc3S(=O)(=O)CC(C)C)n2)c(OC(C)C)cc1C1CN(C)C1` [Final product 36], for which the IC50 in assay [1] stood at 8 nM; in assay [2], 326 nM.
Take `Cc1cc(Nc2ncc(Cl)c(Nc3cn(C)nc3S(=O)(=O)C(C)C)n2)c(OC2CC2)cc1C1=CCN(C)CC1` [Final product 50]: the results for the IC50 in assay [1] and in assay [2] were 5 nM and 86 nM, respectively.
Turning to `Cc1cc(Nc2ncc(Cl)c(Nc3cn(C)nc3S(=O)(=O)C(C)C)n2)c(OC(F)(F)F)cc1C1CCNCC1` [Final product 10], the IC50 in assay [1] came to 7 nM; in assay [2], 188 nM.
In the case of `CC(C)S(=O)(=O)c1nn(C)cc1Nc1nc(Nc2ccc(C3CCN(S(C)(=O)=O)C3)cc2OC2CC2)ncc1Cl` (stereo not shown) [Final product 172], the IC50 was determined as 8 nM in assay [1] and 111 nM in assay [2].
For the compound `Cc1cc(Nc2ncc(Cl)c(Nc3cn(C)nc3S(=O)(=O)C(C)C)n2)c(OC2CC2)cc1C1CCNC1` (stereo not shown) [Final product 26], the values for the IC50 in assay [1] and in assay [2] were 5 nM and 217 nM, respectively.
`CC(C)S(=O)(=O)c1nn(C2CC2)cc1Nc1nc(Nc2ccc(C3CCN(S(C)(=O)=O)CC3)cc2OC2CC2)ncc1Cl` [Final product 173]: the values for the IC50 in assay [1] and in assay [2] were 37 nM and 34 nM, respectively.
Take `Cc1cc(Nc2ncc(Cl)c(Nc3cn(C4CC4)nc3S(=O)(=O)C(C)C)n2)c(OC2CC2)cc1C1CCNCC1` [Final product 27]: the IC50 in assay [1] amounted to 3 nM; in assay [2], 168 nM.
As for `Cc1cc(Nc2ncc(Cl)c(Nc3cn(C)nc3S(=O)(=O)CC(C)C)n2)c(OC2CC2)cc1C1CCN(CCO)CC1` [Final product 137], the IC50 in assay [1] worked out at 4 nM; in assay [2], 103 nM.
For `Cc1cc(Nc2ncc(Cl)c(Nc3cn(C)nc3S(=O)(=O)C(C)C)n2)c(C(F)(F)F)cc1C1CCN(C)CC1` [Final product 32], the IC50 in assay [1] stood at 22 nM; in assay [2] it was 1080 nM.
In the case of `CC(C)S(=O)(=O)c1nn(C)cc1Nc1nc(Nc2cc(Cl)c(C3CCNCC3)cc2OC2CC2)ncc1Cl` [Final product 22], the IC50 in assay [1] stood at 2 nM; in assay [2] it was 115 nM.
For the compound `Cc1cc(Nc2ncc(Cl)c(Nc3cn(C)nc3S(=O)(=O)CC(C)C)n2)c(OC2CC2)cc1C1CCNCC1` [Final product 28], the IC50 in assay [1] turned out to be 9 nM; in assay [2], 134 nM.
For the compound `CC(C)S(=O)(=O)c1nn(C)cc1Nc1nc(Nc2cc(C#N)c(C3CCN(C)CC3)cc2OC2CC2)ncc1Cl` [Final product 49], the IC50 in assay [1] came to 8 nM; in assay [2] it was 165 nM.
For `Cc1cc(Nc2ncc(Cl)c(Nc3cn(C)nc3S(=O)(=O)C(C)C)n2)c(OCC2CC2)cc1C1CCN(C)CC1` [Final product 39], the results for the IC50 in assay [1] and in assay [2] were 15 nM and 226 nM, respectively.
The matching figures for `Cc1cc(Nc2ncc(Cl)c(Nc3cn(C)nc3S(=O)(=O)C(C)C)n2)c(OC(F)(F)F)cc1C1CCN(C)CC1` [Final product 31]: 6 nM and 374 nM.
For `Cc1cc(Nc2ncc(Cl)c(Nc3cn(C)nc3S(=O)(=O)C(C)C)n2)c(OC2CC2)cc1C1CN(S(C)(=O)=O)C1` [Final product 170], the results for the IC50 in assay [1] and in assay [2] were 40 nM and 381 nM, respectively.
On to `Cc1cc(Nc2ncc(Cl)c(Nc3cn(C)nc3S(=O)(=O)C(C)C)n2)c(OC2CC2)cc1[C@H]1CC[C@H](NC2CC2)CC1` [Final product 196], for which the IC50 worked out at 9 nM in assay [1] and 88 nM in assay [2].
For the compound `CC(C)S(=O)(=O)c1nn(C)cc1Nc1nc(Nc2cc(F)c(C3CCNC3)cc2OC2CC2)ncc1Cl` (stereo not shown) [Final product 20], the IC50 came out at 9 nM in assay [1] and 384 nM in assay [2].
On to `CC(C)S(=O)(=O)c1nn(C2CC2)cc1Nc1nc(Nc2ccc(C3CCNCC3)cc2OC2CC2)ncc1Cl` [Final product 16], for which the IC50 in assay [1] amounted to 4 nM; in assay [2], 39 nM.
As for `Cc1cc(Nc2ncc(Cl)c(Nc3cn(C)nc3S(=O)(=O)C(C)C)n2)c(OC2CC2)cc1C1CCN(C=O)CC1` [Final product 159, 4-(4-(5-chloro-4-(3-(isopropylsulfonyl)-1-methyl-1H-pyrazol-4-amino)pyrimidin-2-amino)-5-cyclopropoxy-2-methylphenyl)piperidin-1-formaldehyde], the IC50 is 9 nM in assay [1] and 43 nM in assay [2].
`CC(C)S(=O)(=O)c1nn(C)cc1Nc1nc(Nc2ccc(C3CCN(C)C3)cc2OC2CC2)ncc1Cl` (stereo not shown) [Final product 41]: the IC50 in assay [1] was found to be 1 nM; in assay [2] it was 33 nM.
Turning to `CC(C)CS(=O)(=O)c1nn(C)cc1Nc1nc(Nc2ccc(C3CCNCC3)cc2OC2CC2)ncc1Cl` [Final product 17], the IC50 in assay [1] worked out at 11 nM; in assay [2] it was 278 nM.
The matching figures for `CC(C)S(=O)(=O)c1nn(C)cc1Nc1nc(Nc2ccc(C3CCNCC3)cc2OC2CC2)ncc1Cl` [Final product 13]: 3 nM and 58 nM.
Consider `Cc1cc(Nc2ncc(Cl)c(Nc3cn(C)nc3S(=O)(=O)C(C)C)n2)c(OC(C)C)cc1C1CCN(C(C)(C)CO)CC1` [Final product 152], for which the IC50 in assay [1] came to 4 nM; in assay [2] it was 86 nM.
In the case of `Cc1cc(Nc2ncc(Cl)c(Nc3cn(C)nc3S(=O)(=O)C(C)C)n2)c(OC2CC2)cc1OC1CCN(C)CC1` [Final product 111], the IC50 in assay [1] turned out to be 3 nM; in assay [2], 188 nM.
The matching figures for `Cc1cc(Nc2ncc(Cl)c(Nc3cn(C)nc3S(=O)(=O)CC(C)C)n2)c(OC2CC2)cc1[C@H]1CC[C@H](NC(C)C)CC1` [Final product 182]: 14 nM and 89 nM.
For the compound `CCC(C)S(=O)(=O)c1nn(C)cc1Nc1nc(Nc2cc(C)c(C3CCNCC3)cc2OC(C)C)ncc1Cl` (stereo not shown) [Final product 7], the results for the IC50 in assay [1] and in assay [2] were 8 nM and 224 nM, respectively.
In the same order, the values of `Cc1cc(Nc2ncc(Cl)c(Nc3cn(C)nc3S(=O)(=O)C(C)C)n2)c(OC2CC2)cc1C1CCN(C2CC2)CC1` [Final product 157] are 7 nM and 142 nM.
As to `CCN1CCC(c2cc(OC(C)C)c(Nc3ncc(Cl)c(Nc4cn(C)nc4S(=O)(=O)C(C)C)n3)cc2C)CC1` [Final product 118], the IC50 in assay [1] was determined as 5 nM; in assay [2], 101 nM.
For `Cc1cc(Nc2ncc(Cl)c(Nc3cn(C)nc3S(=O)(=O)C(C)C)n2)c(OC(CF)CF)cc1C1CCN(C)CC1` [Final product 34], the IC50 was 10 nM in assay [1] and 403 nM in assay [2].

Source of the values: patent US10023593B2, “ALK kinase inhibitor, and preparation method and uses thereof” (BEIJING PEARL BIOTECHNOLOGY LIMITED LIABILITY COMPANY, priority 2014, dated 2018).
